The source of these data is patent US20240293289A1, “Multifunctional Dental Adhesives and Uses Thereof” (University of Maryland, Baltimore, priority 2023, published 2024).

As usually defined, the inhibition is how much of the control response was suppressed.

The target in this assay is MMP-9 (Homo sapiens, UniProt P14780). In words: SENSOLYTE Generic MMP Assay Kit, MMP inhibition. The format is biochemical. The protocol: For the MMPs inhibition assay, SENSOLYTE Generic MMP Assay Kit Colorimetric was used. The MMP thiopeptide substrate solution was diluted to 0.2 mM with the supplied assay buffer in a 1:50 volume ratio. A 96-well plate was used for the assay using four replicates per group. In each well, 40 μL of MMP-9 (20 ng/well), 10 μL of CHX (1 mg/mL) at serial dilutions, and 50 μL of thiopeptide substrate solution were mixed. […] was measured using a plate reader (SpectraMax M5, Molecular Devices, Sunnyvale, CA, USA) at Ex/Em-490 nm/540 nm with a kinetic mode every 5 min for 60 min (20). The substrate control group was set as a background, where its absorbance was subtracted from other wells. The percentage of MMP inhibition was calculated according to equation 5: […]
Sequence of MMP-9 (P14780 94-707): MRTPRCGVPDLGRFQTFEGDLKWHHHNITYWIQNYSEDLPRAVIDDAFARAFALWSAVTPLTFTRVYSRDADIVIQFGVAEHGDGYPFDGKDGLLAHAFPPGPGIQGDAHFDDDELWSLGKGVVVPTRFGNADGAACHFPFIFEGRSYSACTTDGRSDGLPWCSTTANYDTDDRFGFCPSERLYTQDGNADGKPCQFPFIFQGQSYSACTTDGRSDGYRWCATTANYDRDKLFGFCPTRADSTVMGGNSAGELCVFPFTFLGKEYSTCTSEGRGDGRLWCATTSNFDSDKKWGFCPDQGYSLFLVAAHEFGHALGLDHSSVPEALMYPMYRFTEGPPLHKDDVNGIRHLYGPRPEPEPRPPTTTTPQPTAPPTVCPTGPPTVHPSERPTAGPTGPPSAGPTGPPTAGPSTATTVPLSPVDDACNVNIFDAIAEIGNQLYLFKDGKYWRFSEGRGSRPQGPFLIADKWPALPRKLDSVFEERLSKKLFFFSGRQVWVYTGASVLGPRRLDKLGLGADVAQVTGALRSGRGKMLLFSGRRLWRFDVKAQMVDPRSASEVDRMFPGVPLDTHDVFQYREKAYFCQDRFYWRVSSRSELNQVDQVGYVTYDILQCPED

`[H]/N=C(\N/C(=N/[H])NCCCCCCNC(=N)NC(=N)Nc1ccc(Cl)cc1)Nc1ccc(Cl)cc1` [CHX, Chlorhexidine] came in with an inhibition at 1000 µg/mL (1 mg/mL CHX) of 99.8%. In addition, where the note is “less than 1 mg/mL of CHX”, the “inhibition of MMP-9” value is “substantial inhibition”.
